The target in series [1] is T1, P-gp (human MDR1) (Homo sapiens, UniProt P08183). The note with it: MDCKII-MDR1 monolayers.
For series [2], the system named is MDCKII-MDR1, MDCK-MRP2 and MDCK-BCRP cells. Description: ATP activity assay in MDCK cell lines. In kind it is cell-based, dog. As to conditions: all MDCK cell lines, 30 min treatment, 0.75, 1.25, 2.5 and 5mM.
The next series concerns P-gp. The note with it: rat endothelial cell line (RBMEC); ref Li et al. 2009; cited from earlier work.
A further series deals with many bacterial species. As to conditions: cited from earlier work.
The target of series [3] is T2, MRP2 (Homo sapiens, UniProt Q92887). Description: Bidirectional [14C] erythromycin transport across MDCK-MRP2 cell monolayers. In kind it is cell-based.
T2 sequence (Q92887 whole entry): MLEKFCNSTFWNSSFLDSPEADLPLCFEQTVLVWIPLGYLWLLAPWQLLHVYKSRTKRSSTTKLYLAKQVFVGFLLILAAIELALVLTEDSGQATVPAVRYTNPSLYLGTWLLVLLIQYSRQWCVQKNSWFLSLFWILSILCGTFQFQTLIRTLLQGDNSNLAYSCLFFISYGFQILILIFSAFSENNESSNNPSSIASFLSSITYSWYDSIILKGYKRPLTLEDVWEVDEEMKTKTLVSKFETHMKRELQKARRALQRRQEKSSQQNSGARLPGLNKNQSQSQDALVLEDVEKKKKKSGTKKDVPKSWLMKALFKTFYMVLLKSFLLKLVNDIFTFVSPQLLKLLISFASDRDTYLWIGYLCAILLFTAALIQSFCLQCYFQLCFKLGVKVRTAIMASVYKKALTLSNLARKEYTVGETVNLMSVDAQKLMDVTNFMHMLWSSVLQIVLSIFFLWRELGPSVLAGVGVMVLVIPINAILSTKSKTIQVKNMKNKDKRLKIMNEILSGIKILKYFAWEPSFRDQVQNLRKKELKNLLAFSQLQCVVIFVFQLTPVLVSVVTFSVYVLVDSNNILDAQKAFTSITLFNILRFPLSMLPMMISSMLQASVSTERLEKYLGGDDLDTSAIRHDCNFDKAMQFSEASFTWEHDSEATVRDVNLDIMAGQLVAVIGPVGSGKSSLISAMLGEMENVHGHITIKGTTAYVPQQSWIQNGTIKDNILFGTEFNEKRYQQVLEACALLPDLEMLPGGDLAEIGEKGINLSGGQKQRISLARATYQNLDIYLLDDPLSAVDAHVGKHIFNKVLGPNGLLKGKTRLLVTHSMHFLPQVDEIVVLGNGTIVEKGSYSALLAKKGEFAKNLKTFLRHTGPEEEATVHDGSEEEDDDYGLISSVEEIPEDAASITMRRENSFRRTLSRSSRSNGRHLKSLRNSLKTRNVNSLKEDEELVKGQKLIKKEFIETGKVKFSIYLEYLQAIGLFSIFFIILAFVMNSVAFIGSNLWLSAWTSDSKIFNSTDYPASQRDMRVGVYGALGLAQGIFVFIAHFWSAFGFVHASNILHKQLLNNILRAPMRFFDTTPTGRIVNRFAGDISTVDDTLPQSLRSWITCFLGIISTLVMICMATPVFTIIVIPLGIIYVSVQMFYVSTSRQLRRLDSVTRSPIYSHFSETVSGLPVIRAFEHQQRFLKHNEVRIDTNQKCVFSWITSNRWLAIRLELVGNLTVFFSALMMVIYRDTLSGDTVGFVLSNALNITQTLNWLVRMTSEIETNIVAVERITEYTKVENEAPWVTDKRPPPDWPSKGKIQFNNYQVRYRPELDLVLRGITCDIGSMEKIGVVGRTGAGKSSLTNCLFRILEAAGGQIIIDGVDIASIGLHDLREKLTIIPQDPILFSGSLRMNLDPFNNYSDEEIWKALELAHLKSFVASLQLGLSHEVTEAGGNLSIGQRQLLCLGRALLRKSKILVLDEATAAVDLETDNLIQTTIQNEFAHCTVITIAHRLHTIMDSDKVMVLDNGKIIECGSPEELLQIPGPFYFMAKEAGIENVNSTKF
Series [4] addresses T1, P-gp (human MDR1). The series is described as follows: [14C] erythromycin uptake in MDCKII-MDR1 cells. The format is cell-based.
A further series has as its target T3, BCRP (Homo sapiens, UniProt Q9UNQ0).
T3 sequence (Q9UNQ0 1-655): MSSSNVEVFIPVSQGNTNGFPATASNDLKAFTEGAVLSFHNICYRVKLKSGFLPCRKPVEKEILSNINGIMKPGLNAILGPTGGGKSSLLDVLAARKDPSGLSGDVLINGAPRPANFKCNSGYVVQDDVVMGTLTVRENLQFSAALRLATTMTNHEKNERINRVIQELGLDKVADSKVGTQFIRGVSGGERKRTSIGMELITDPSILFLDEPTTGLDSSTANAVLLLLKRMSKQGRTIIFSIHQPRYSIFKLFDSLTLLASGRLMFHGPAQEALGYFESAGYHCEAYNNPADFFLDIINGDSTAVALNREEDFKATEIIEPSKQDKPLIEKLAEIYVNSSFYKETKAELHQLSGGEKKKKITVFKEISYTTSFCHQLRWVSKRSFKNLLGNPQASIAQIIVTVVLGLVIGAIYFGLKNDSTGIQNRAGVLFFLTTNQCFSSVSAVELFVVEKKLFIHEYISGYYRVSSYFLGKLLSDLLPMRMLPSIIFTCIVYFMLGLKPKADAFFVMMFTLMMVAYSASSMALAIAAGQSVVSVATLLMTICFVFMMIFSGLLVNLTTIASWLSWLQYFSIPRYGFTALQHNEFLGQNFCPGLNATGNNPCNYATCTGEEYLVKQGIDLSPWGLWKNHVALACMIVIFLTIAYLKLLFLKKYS
The series is described as follows: Accumulation of Hoechst 33342 in MDCK-BCRP cells. The format is cell-based. As to conditions: gatifloxacin 0.5, 1, 2.5, 5 and 10 mM, Hoechst 33342 5μM.

Series [5] has as its target T2, MRP2. Description: [14C] erythromycin uptake in MDCK-MRP2 cells. The format is cell-based.
Series [6] relates to MRP2. The series is described as follows: Bidirectional [14C] erythromycin transport across MDCK-MRP2 cell monolayers. In kind it is cell-based, human. The note with it: human, pH 7.4.
Series [7] addresses T1, P-gp (human MDR1). Description: in vitro. As to conditions: MDCK-MDR1, pH 7.4.

≈ marks a conversion by molar mass, not a printed value. A value given as a limit tells only on which side of the number the result lay.

T1 sequence (P08183 whole entry): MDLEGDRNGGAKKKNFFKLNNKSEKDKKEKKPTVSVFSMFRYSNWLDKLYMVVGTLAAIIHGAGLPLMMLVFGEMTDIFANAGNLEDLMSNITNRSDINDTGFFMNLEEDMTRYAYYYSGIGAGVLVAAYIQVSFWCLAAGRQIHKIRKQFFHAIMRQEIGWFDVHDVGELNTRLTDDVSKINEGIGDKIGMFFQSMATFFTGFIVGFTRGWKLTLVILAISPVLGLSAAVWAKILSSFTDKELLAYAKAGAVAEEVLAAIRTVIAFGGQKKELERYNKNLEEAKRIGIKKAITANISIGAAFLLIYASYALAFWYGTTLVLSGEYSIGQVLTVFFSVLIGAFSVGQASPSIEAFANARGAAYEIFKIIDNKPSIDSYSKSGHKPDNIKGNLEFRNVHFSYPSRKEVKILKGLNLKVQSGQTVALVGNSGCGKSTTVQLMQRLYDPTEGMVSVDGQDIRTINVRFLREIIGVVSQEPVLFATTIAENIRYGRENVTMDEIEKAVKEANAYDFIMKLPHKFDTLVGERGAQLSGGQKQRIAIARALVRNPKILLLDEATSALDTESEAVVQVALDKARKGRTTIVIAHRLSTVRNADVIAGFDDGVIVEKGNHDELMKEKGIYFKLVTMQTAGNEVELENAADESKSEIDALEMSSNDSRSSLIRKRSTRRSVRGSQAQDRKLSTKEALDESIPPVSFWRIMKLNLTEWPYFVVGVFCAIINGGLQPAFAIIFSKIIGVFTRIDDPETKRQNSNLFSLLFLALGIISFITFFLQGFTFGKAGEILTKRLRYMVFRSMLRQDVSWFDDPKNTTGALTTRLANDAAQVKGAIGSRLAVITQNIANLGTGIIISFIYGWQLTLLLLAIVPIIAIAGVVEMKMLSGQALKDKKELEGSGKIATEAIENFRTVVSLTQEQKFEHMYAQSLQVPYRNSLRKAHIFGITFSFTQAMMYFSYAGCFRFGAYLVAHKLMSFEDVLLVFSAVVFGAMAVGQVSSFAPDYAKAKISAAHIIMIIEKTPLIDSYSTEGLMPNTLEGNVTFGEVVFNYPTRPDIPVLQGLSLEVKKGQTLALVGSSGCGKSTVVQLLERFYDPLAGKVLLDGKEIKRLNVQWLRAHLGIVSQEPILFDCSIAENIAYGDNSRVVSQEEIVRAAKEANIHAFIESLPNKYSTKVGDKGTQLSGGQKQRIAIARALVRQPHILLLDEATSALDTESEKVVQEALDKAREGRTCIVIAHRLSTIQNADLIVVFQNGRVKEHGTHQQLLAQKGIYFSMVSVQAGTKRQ

For `COc1c(N2CCNC(C)C2)c(F)cc2c(=O)c(C(=O)O)cn(C3CC3)c12` (stereo not drawn) [gatifloxacin], the “Effect on efflux ratio of [14C] erythromycin” value is “progressively decrease and approach unity” on P-gp (human MDR1) [1] (increasing concentrations of gatifloxacin); “continuously became lower and approached unity” on MRP2 [3] (MDCK-MRP2 monolayers, increasing concentrations of gatifloxacin). Moreover, in series [2], the “ATP activity of treated cells compared to vehicle control” value is reported as “No significant difference”. Further, in the series on P-gp, the “Involvement of P-gp in the translocation of gatifloxacin” value is given as “did not find any significant involvement”. For the same molecule, the “Minimum inhibitory concentration (MIC)” value in the series on many bacterial species (against many bacterial species, introduction, no reference given) was 0.1 µg/mL (≈ 0.266 µM). The “Activity relative to the other quinolones” value in the series on many bacterial species (ref Ba et al. 2006) is reported as “two- to fourfold more active”. Moreover, the IC50 against P-gp (human MDR1) [4] amounted to 359 ± 90.1 µM; against MRP2 [5], 5230 ± 390 µM. The Ki is 385 ± 88.6 µM at P-gp (human MDR1) [4] and 5370 ± 218 µM at MRP2 [5]. In addition, the “Effect on Hoechst 33342 uptake” value on BCRP was “not found to be significantly different”.

`CC[C@H]1OC(=O)[C@H](C)[C@@H](O[C@H]2C[C@@](C)(OC)[C@@H](O)[C@H](C)O2)[C@H](C)[C@@H](O[C@@H]2O[C@H](C)C[C@H](N(C)C)[C@H]2O)[C@](C)(O)C[C@@H](C)C(=O)[C@H](C)[C@@H](O)[C@]1(C)O` [[^14C] erythromycin, erythromycin]: the “Papp of [14C] erythromycin in B-A direction relative to AP-BL direction” value at P-gp (human MDR1) [1] (erythromycin alone) is given as “more than fivefold higher”. The efflux ratio at 3 h with MRP2 [6] is above 7; on MRP2 [3] (human, pH 7.4) it was 5.3; on P-gp (human MDR1) [7], 7.2.

On MRP2 [5], `CN(C)C(=O)CCSC(SCCC(=O)O)c1cccc(/C=C/c2ccc3ccc(Cl)cc3n2)c1` (stereo not drawn) [MK571] yielded an IC50 of 188 ± 28.2 µM and a Ki of 175 ± 18.2 µM. For the same molecule, on MRP2 [5] (MDCK-MRP2 cells, 100 μM MK571, 30 min), the “Uptake of [14C] erythromycin higher by” value was 177%.
